Patent US6838415B1, “Substituted benzoylisoxazoles and the use thereof as herbicides” (Bayer Aktiengesellschaft, priority 1999, dated 2005)

Experiments:
[1] = logP by HPLC on reverse-phase column (C 18), acidic range; format: physicochemical; settings: for logP a): acidic range: 0.1% aqueous phosphoric acid/acetonitrile gradient, HPLC C 18, 43° C.; for logP: HPLC reverse-phase column (C 18), 43° C., acidic range: 0.1% aqueous phosphoric acid, acetonitrile; data labelled a)
Description: (§1) The logP values given in Table 1 were determined in accordance with EE Directive 79/831 Annex V.A8 by HPLC (High Performance Liquid Chromatography) using a reverse-phase column (C 18). Temperature: 43° C. (a) Mobile phases for the determination in the acidic range: 0.1% aqueous phosphoric acid, acetonitrile; linear gradient from 10% acetonitrile to 90% acetonitrile—the corresponding data in Table 1 are labelled ^a). Calibration was carried out using unbranched alkan-2-ones (with from 3 to 16 carbon atoms) whose logP values are known (determination of the logP values by the retention times using linear interpolation between two successive alkanones). The logP values given in Table 3 were determined in accordance with EEC Directive 79/831 Annex V.A8 by HPLC (High Performance Liquid Chromatography) using a reverse-phase column (C 18). Temperature: 43° C. (a) Mobile phases for the determination in the acidic range: 0.1% aqueous phosphoric acid, acetonitrile; linear gradient from 10% acetonitrile to 90% acetonitrile—the corresponding data in Table 3 are labelled ^a). Calibration was carried out using unbranched alkan-2-ones (with from 3 to 16 carbon atoms) whose logP values are known (determination of the logP values by the retention times using linear interpolation between two successive alkanones).

[2] = logP by HPLC on reverse-phase column (C 18), neutral range; format: physicochemical; settings: neutral range: 0.01 molar aqueous phosphate buffer/acetonitrile gradient, HPLC C 18, 43° C.
Description: as §1, with “(b)” for “(a)”, “neutral” for “acidic”, “0.01 molar” for “0.1%”, “phosphate buffer solution,” for “phosphoric acid,”, “^b).” for “^a).”

weeds [3] = test: Pre-emergence test, action against weeds; format: in vivo; settings: soil sprayed about 24 hours after sowing, rated after three weeks
Description: (§2) Pre-emergence Test [table] To produce a suitable preparation of active compound, 1 part by weight of active compound is mixed with the stated amount of solvent, the stated amount of emulsifier is added and the concentrate is diluted with water to the desired concentration. Seeds of the test plants are sown in normal soil. After about 24 hours, the soil is sprayed with the preparation of active compound such that the particular amount of active compound desired is applied per unit area. The concentration of the spray liquor is chosen so that the particular amount of active compound desired is applied in 1000 liters of water per hectare. After three weeks, the degree of damage to the plants is rated in % damage in comparison to the development of the untreated control. The figures denote: [table]

[4] = test system: crop plants, such as, for example, maize; test: Pre-emergence test, tolerance by crop plants; format: in vivo; settings: rated after three weeks
Description: as §2

weeds [5] = test: Post-emergence test, activity against weeds; format: in vivo; settings: test plants 5-15 cm sprayed, rated after three weeks
Description: (§3) Post-emergence Test [table] To produce a suitable preparation of active compound, 1 part by weight of active compound is mixed with the stated amount of solvent, the stated amount of emulsifier is added and the concentrate is diluted with water to the desired concentration. Test plants which have a height of 5-15 cm are sprayed with the preparation of active compound such that the particular amounts of active compound desired are applied per unit area. The concentration of the spray liquor is chosen so that the particular amounts of active compound desired are applied in 1000 l of water/ha After three weeks, the degree of damage to the plants is rated in % damage in comparison to the development of the untreated control. The figures denote: [table]

[6] = test system: crop plants, such as, for example, wheat; test: Post-emergence test, tolerance by crop plants; format: in vivo; settings: rated after three weeks
Description: as §3

Row | logP a) [1] | logP [1] | SMILES | also measured
1 |  | logP = 3.08^a) | CCOC(=O)c1ccc(C(F)(F)F)cc1Cn1nc(OC)n(C2CC2)c1=O [VII-91] | 
2 |  | logP = 3.26^a) | COC(=O)c1ccc(C(F)(F)F)cc1Cn1nnc2ccccc2c1=O [VII-123] | 
3 |  | logP = 3.29^a) | COC(=O)c1ccc(C(F)(F)F)cc1CN1C(=O)c2ccccc2S1(=O)=O [VII-122] | 
4 |  | logP = 3.37^a) | COC(=O)c1ccc(C(F)(F)F)cc1Cn1c(=O)oc2ccccc21 [VII-121] | 

Second part, the compound before the results:

Row | SMILES | logP a) [1] | logP [1] | also measured
5 | COC(=O)c1noc(C2CC2)c1C(=O)c1ccc(Br)cc1Cn1nc(C(F)(F)F)n(C)c1=O [Example 5] | (IA) logP = 3.50^a) |  | 
6 | CCOn1c(CC)nn(Cc2cc(Br)ccc2C(=O)c2c(C(=O)OC)noc2C2CC2)c1=O [Example 4] |  |  | logP b) [2]: (IA) logP = 3.36^b); action against weeds (degree of damage) (weeds [3]): strong action against weeds; tolerance by crop plants [4]: tolerated well; activity against weeds (degree of damage) (weeds [5]): very strong activity against weeds; tolerance by crop plants [6]: tolerated well
7 | CCOc1nn(Cc2cc(Br)ccc2C(=O)c2c(C(=O)OC)noc2C2CC2)c(=O)n1C [Example 3] | (IA) logP = 3.15^a) |  | action against weeds (degree of damage) (weeds [3]): strong action against weeds; tolerance by crop plants [4]: tolerated well; activity against weeds (degree of damage) (weeds [5]): very strong activity against weeds; tolerance by crop plants [6]: tolerated well
8 | CSc1nn(Cc2cc(C(F)(F)F)ccc2C(=O)c2cnoc2C2CC2)c(=O)n1C [Example 2, (5-cyclopropyl-isoxazol-4-yl)-[2-(4-methyl-3-methylthio-5-oxo-4,5-dihydro-[1,2,4]-triazol-1-yl-methyl)-4-trifluoromethyl-phenyl]-methanone] |  |  | chromatographic logP ([1]; reverse-phase HPLC column (C 18), pH=2.3, read-out: logP (determined at pH=2.3)): 2.94
9 | COc1c(C(=O)c2cnoc2C2CC2)ccc(Cl)c1CN1CCN(C)C1=O [ID-2] | logP = 2.46^a) |  | 
10 | CN1CCN(Cc2c(Cl)ccc(C(=O)c3cnoc3C3CC3)c2Cl)C1=O [ID-1] | logP = 2.48^a) |  | 
11 | COC(=O)c1noc(C2CC2)c1C(=O)c1ccc(C(F)(F)F)cc1Cn1nc(SC)n(C)c1=O [Example 7] | (IA) logP = 3.22^a) |  | 
12 | CCOc1nn(Cc2cc(C(F)(F)F)ccc2C(=O)c2c(C(=O)OC)noc2C2CC2)c(=O)n1C [Example 6] | (IA) logP = 3.32^a) |  | 
